Format in all cases: cell-based, rat
In assay [1] the test system is cortical cells. The experiment in a line: BrdU proliferation ELISA assay. The settings on record: 150 μg/ml, 24 h, FIG. 5. As to the method:
(§1) BrdU-Incorporation Assay: For measuring the newly synthesized cells during proliferation of treated and un-treated cultured hippocampal, cortical and co-cultured cells, the BrdU (Calbiochem®, CA, USA) cell proliferation ELISA kit was used. This immunoassay is based on the measurement of BrdU (5-bromo-2′-deoxiurydine) incorporation into DNA during division phase of the proliferating cells. For BrdU proliferation assay, primary cultured cells were grown in 75 cm flasks and when cells were confluent they were trypsinized and re-plated with a cell density of 1×10^5 cells/mL in 96-well tissue culture grade flat bottom ELISA plates, i.e., (10,000 cells/well) in DMEM medium (high glucose). The plates were incubated overnight at 37° C. in 5% CO2. Next day, media was changed and adherent cells were treated with different doses of isoxylitones, i.e., 25, 50, 75, 100, and 150 μg/mL and incubated for 24 hrs in a humidified chamber at 37° C. and 5% CO2.
(§2) The following day, the cells were first labeled by the 20 μL of BrdU (1:2000) in fresh medium and kept in a humidified atmosphere at 37° C. for 24 hrs. During 20-24 hrs of labeling period, BrdU is incorporated in place of thymidine into the DNA of the proliferating cells. After removing the labeling medium by tapping off the plate, cells were fixed, and DNA denatured in one step by adding 200 μL of fixative or Denat solution (provided in the kit) in each well following incubation for 30 minutes at room temperature.
(§3) The fixation and denaturation of DNA is required to expose the incorporated BrdU for detection by the antibody. The fixative or Denat solution was removed by flicking off and tapping on paper towel. […] The immune complexes were detected by the subsequent substrate reaction and the absorbance was measured on spectrophotometer plate reader at dual wave lengths of 450-595 nm within 30 minutes of adding the stop solution. The data was analyzed using SPSS and graphs were made on Excel.
For orientation: An ELISA detects its analyte on a solid surface through an enzyme-linked reagent.

The subject of assay [2] is hippocampal cells. The experiment in a line: BrdU proliferation ELISA assay. The settings on record: 24 h, FIG. 5. The method, then:
as §1, §2, §3

The subject of assay [3] is cortical (CTX) cells. The experiment in a line: Growth supporting effect on neuronal cultures (phase contrast microscopy). The settings on record: cortical cells treated for 24 h, FIG. 1. The method, then:
(§4) For isolation of hippocampal and cortical neurons, two days old rat pups were sacrificed under sterile conditions. Brain samples were carefully isolated and hippocampal and cortical regions were dissected out and placed in ice-cold PBS supplemented with 1% penicillin-streptomycin. Tissue was chopped in small pieces with a sterile scalpel and washed three times with PBS. Subsequently tissues were digested in typsin-EDTA solution (0.05% of trypsin) for 7 minutes at 37° C. and 5% CO2 in a humidified chamber. After typsinisation, cells were washed three times in Dulbecco's Modified Eagle's Medium (DMEM) media containing 5% FBS and finally triturated using flame-polished Pasteur pipette to prepare dissociated cell suspension. The cell suspensions were then centrifuged at 1200 rpm for 4 minutes, supernatants were discarded and cell pellets were re-suspended in 1 mL complete media to find out the cell count and viability. Cells were finally cultured in DMEM (high glucose), supplemented with 10% fetal bovine serum (FBS), 1% L-Glutamine, 1% penicillin/streptomycin (10,000 U/mL and 10 mg/mL, resp.), and 1% sodium pyruvate. The culture flasks (75 cm^2) were then incubated at 37° C. with 5% CO2. Cells were examined daily for any change in morphology or contamination. Media was changed twice or thrice weekly. All cell work was done in a tissue culture hood under sterile conditions.
(§5) To evaluate the growth supporting effect of isoxylitones the hippocampal, cortical and co-cultured cells were plated in 6-well plates and treated with 25 μg/mL, 50 μg/mL, 75 μg/mL and 150 μg/mL doses of isoxylitones. Cells with no treatment were set as a control. The plates were incubated for 24 and 72 hrs in a humidified chamber at 37° C. in 5% CO2. To assess the morphology of the treated cells, images were captured and digitalized with Nikon TE-2000 inverted microscope equipped with phase-contrast optics to measure the difference of control group from treated group. The cells were observed carefully in order to check if they maintain their morphological characteristics after treatment with the compound. The doses which supported the maximum proliferation were used for proliferation assays i.e., AlamarBlue and BrdU assay.

Assay [4] concerns hippocampal (HP) cells. The description is as above. The settings on record: FIG. 1. The method, then:
as §4, §5

Where [5] appears, read: hippocampal cells treated for 24 h.

As for `CC(=O)C=C1C=C(C)CC(C)(C)C1` (mixture of isomers) [isoxylitones], the BrdU positive cells result in assay [1] is “slightly increased BrdU positive cells”; in assay [2] (100 μg/ml), “significantly increased BrdU positive cells”; in assay [2] (150 μg/ml), “significantly increased BrdU positive cells”. Also, the effect on morphology entry in assay [3] and in assay [4] (setting [5]) was “without any significant change in morphology” throughout. The “proliferation (phase contrast photomicrographs)” value in assay [3] and in assay [4] (setting [5]) was “increased proliferation” each time. Besides, the “proliferation of treated hippocampal cells compared to cortical cells” value in assay [4] (treated for 24 h) is listed as “higher proliferation as compared to cortical cells”.

(Values after patent publication US11065211B2, “Isoxylitones mediated neurogenesis” (priority 2018, dated 2021).)
